# Reference: publication PMC4132742, “Inhibition of RNA binding to hepatitis C virus RNA-dependent RNA polymerase: a new mechanism for antiviral intervention” (Nucleic Acids Research, 2014)
# Target: HCV-NS5BΔ21 RdRp genotype 1b (strain J4) (Hepatitis C virus genotype 1b, UniProt O92972)
# Experiment: biochemical
# Set-up: His6 (N); made in house; host or cells: Escherichia coli C41(DE3)
# Conditions: 20 μM compound; for Slope of fluorescence increase: no treatment control slope 62.0
# Protocol: The HCV RdRps (NS5B protein) from reference strains H77 (genotype 1a), J4 (genotype 1b) and JFH1 (genotype 2a), truncated of their 21 C-terminal amino acids to ensure solubility (NS5BΔ21) and carrying a hexahistidine tag (His6-Tag) at their N-terminus, were expressed in Escherichia coli C41(DE3) and purified as previously described ([20]). Briefly, cultures were grown at 37°C for ∼1 h and induced with 1 mM isopropyl β-D-thiogalactoside for 4 h at 37°C. […] After sonication, cell lysates were clarified by centrifugation, and chromatography was performed on a Ni-NTA column (Qiagen, Hilden, Germany). The bound protein was eluted in 1 ml fractions with a buffer containing 50 mM NaH2PO4 (pH 8.0), 500 mM NaCl and 250 mM imidazole. NS5BΔ21-enriched fractions were selected using a Bradford colorimetric assay, and HCV-NS5BΔ21 purity was determined by Coomassie-stained sodium dodecyl sulfate-polyacrylamide electrophoresis gel (SDS-PAGE) analysis. Purified NS5BΔ21 fractions were pooled and dialyzed against a buffer containing 5 mM Tris (pH 7.5), 0.2 M sodium acetate, 1 mM DTT, 1 mM ethylenediaminetetraacetic acid (EDTA) and 10% glycerol.
# The cell-free HCV-NS5BΔ21 polymerase assay is based on the real-time measurement of the amount of double-stranded RNA synthesized in the presence of HCV-NS5BΔ21, a homopolymeric RNA template (poly U or poly C, GE Healthcare, Chalfont St. Giles, UK) and the corresponding nucleotide, by means of an intercalating agent (SYBR® Green, Applied Biosystems, Carlsbad, CA, USA), as previously described ([20]). For screening, HCV-NS5BΔ21 polymerase activity was quantified by the slope of fluorescence increase in the presence of 20 μM of the tested flavonoid compounds and compared with the control reaction containing no inhibitor. […] The reported values are the average of three independent measurements performed in duplicate. For kinetics analysis, initial reaction velocities were measured at different nucleotide (adenosine triphosphate (ATP) or GTP) and studied compound concentrations, without pre-incubation and in the presence of 50 μg/ml of the corresponding homopolymeric RNA template (Poly U and Poly C, respectively). The concentration of NS5BΔ21 (J4 strain, genotype 1b) in the reaction was 0.1 mg/ml. Kinetics data were graphically represented as double reciprocal plots. Data points were fitted by linear regression to identify the inhibition mode of the compound.
Compound,% HCV-NS5BΔ21 inhibition [%],Slope of fluorescence increase,inhibition at 20 µM [%],% HCV-NS5BΔ21 inhibition (20 µM) [%]
Oc1cc(O)c2c(c1)O[C@H](c1ccc(O)c(O)c1)[C@@H](O)C2 (racemic) [DL-Catechin],17.7,51.1,–,–
O=C1c2ccc(O)cc2OC(c2cc(O)c(O)c(O)c2)C1O (stereo in doubt) [Dihydrorobinetin],11.0,55.2,–,–
O=c1cc(-c2ccc(O)c(O)c2)oc2ccccc12 [3’.4’-Dihydroxyflavone],45.4,33.9,–,–
O=c1cc(-c2ccc(O)c(O)c2)oc2c(O)c(O)ccc12 [3’.4’.7.8-Tetrahydroxyflavone],30.9,42.9,–,–
O=C1CC(c2ccc(O)cc2)Oc2ccccc21 (stereo not shown) [4’-Hydroxyflavanone],–,56.3,9.3,–
O=c1c(O)c(-c2ccc(O)cc2)oc2cc(O)ccc12 [5-Deoxykampferol],–,22.4,–,63.9
O=c1cc(-c2ccccc2)oc2cccc(O)c12 [5-hydroxyflavone],–,53.0,14.5,–
O=c1cc(-c2ccccc2)oc2c(O)c(O)cc(O)c12 [5.7.8-Trihydroxyflavone],47.4,32.6,–,–
O=C1CC(c2ccccc2)Oc2ccc(O)cc21 (stereo not shown) [6-Hydroxyflavanone],–,59.5,4.1,–
O=c1cc(-c2ccccc2)oc2ccc(O)cc12 [6-Hydroxyflavone],–,50.6,18.5,–
O=c1cc(-c2ccccc2)oc2cc(O)c(O)cc12 [6.7 Dihydroxyflavone],37.4,38.8,–,–
O=c1c(O)c(-c2ccccc2)oc2cc(O)ccc12 [7-hydroxyflavonol],–,17.8,71.3,–
O=c1cc(-c2ccc(O)cc2)oc2cc(O)ccc12 [7.4’-Dihydroxyflavone],25.7,46.1,–,–
O=c1cc(-c2ccccc2)oc2c(O)c(O)ccc12 [7.8 Dihydroxyflavone],30.8,42.9,–,–
O=c1cc(-c2ccc(O)cc2)oc2cc(O)cc(O)c12 [Apigenin],–,23.3,62.5,–
O=c1cc(-c2ccccc2)oc2cc(O)c(O)c(O)c12 [Baicalein],–,23.7,61.8,–
O=c1c(O)c(-c2ccccc2O)oc2cc(O)cc(O)c12 [Datiscetin],–,18.3,70.5,–
O=c1c(O)c(-c2ccc(O)c(O)c2)oc2cc(O)ccc12 [Fisetin],–,21.2,65.8,–
O=C1CC(c2ccccc2)Oc2ccccc21 (stereo not shown) [Flavanone],–,57.4,7.5,–
O=c1cc(-c2ccccc2)oc2ccccc12 [Flavone],–,53.9,13.1,–
O=C1c2ccc(O)cc2O[C@H](c2ccc(O)c(O)c2)[C@H]1O [Fustin],–,53.0,14.5,–

Compound,% HCV-NS5BΔ21 inhibition [%],Slope of fluorescence increase,inhibition at 20 µM [%],% HCV-NS5BΔ21 inhibition (20 µM) [%]
O=c1c(O)c(-c2ccccc2)oc2cc(O)cc(O)c12 [Galangin],–,11.9,80.8,–
O=c1c(-c2ccc(O)cc2)coc2cc(O)cc(O)c12 [Genistein],–,53.9,13.1,–
O=c1c(O)c(-c2ccc(O)c(O)c2)oc2c(O)c(O)cc(O)c12 [Gossypetin],–,15.8,74.6,–
O=c1c(O[C@@H]2O[C@H](CO)[C@H](O)[C@H](O)[C@H]2O)c(-c2ccc(O)c(O)c2)oc2cc(O)cc(O)c12 [Hyperoside],–,44.6,28.1,–
COc1cc(-c2oc3cc(O)cc(O)c3c(=O)c2O)ccc1O [Isorhamnetin],–,13.9,77.6,–
O=c1c(O)c(-c2ccc(O)cc2)oc2cc(O)cc(O)c12 [Kaempferol],–,15.7,74.7,–
O=C1C[C@@H](c2ccc(O)cc2)Oc2cc(O)ccc21 [Liquiritigenin],6.1,58.3,–,–
O=c1cc(-c2ccc(O)c(O)c2)oc2cc(O)cc(O)c12 [Luteolin],–,11.4,81.7,–
O=c1c(O)c(-c2ccc(O)cc2O)oc2cc(O)cc(O)c12 [Morin],–,19.0,69.3,–
O=c1c(O)c(-c2cc(O)c(O)c(O)c2)oc2cc(O)cc(O)c12 [Myricetin],–,12.9,79.2,–
O=C1C[C@@H](c2ccc(O)cc2)Oc2cc(O)cc(O)c21 [Naringenin],–,58.3,6,–
O=c1c(O)c(-c2ccc(O)c(O)c2)oc2cc(O[C@@H]3O[C@H](CO)[C@@H](O)[C@H](O)[C@H]3O)c(O)c(O)c12 [Quercetagetin-7-O glucoside],42.5,35.7,–,–
COc1cc(OC)c2c(=O)c(OC)c(-c3ccc(OC)c(OC)c3)oc2c1 [Quercetin 3.5.7.3’.4’ pentamethylether],4.0,59.6,–,–
COc1cc(O)c2c(=O)c(OC)c(-c3ccc(OC)c(OC)c3)oc2c1 [Quercetin 3.7.3’.4’ tétramethylether],14.5,53.0,–,–
O=c1c(O[C@@H]2O[C@H](CO)[C@@H](O)[C@H](O)[C@H]2O)c(-c2ccc(O)c(O)c2)oc2cc(O)cc(O)c12 [Quercetin-3-O glucopyranoside],25.9,46.0,–,–
O=c1c(O)c(-c2ccc(O)c(O)c2)oc2cc(O)cc(O)c12 [Quercetin],–,10.1,83.7,–
O=c1c(O)c(-c2cc(O)c(O)c(O)c2)oc2cc(O)ccc12 [Robinetin],–,27.4,55.9,–
C[C@@H]1O[C@@H](OC[C@H]2O[C@@H](Oc3c(-c4ccc(O)c(O)c4)oc4cc(O)cc(O)c4c3=O)[C@H](O)[C@@H](O)[C@@H]2O)[C@H](O)[C@H](O)[C@H]1O [Rutin],–,43.2,30.3,–
O=c1cc(-c2ccc(O)cc2)oc2cc(O)c(O)c(O)c12 [Scutellarein],–,20.2,67.4,–
O=c1cc(-c2cc(O)c(O)c(O)c2)oc2cc(O)cc(O)c12 [Tricetin],–,18.9,69.5,–
